Legend:
[1] = Determining the specific surface area (multi point BET, nitrogen); type: physicochemical; conditions: spray-dried microparticles from ethanol solution; 16 point BET
Method: b) Determining the Specific Surface Area:
Measuring method: The specific surface is determined by exposing the powder sample to a nitrogen atmosphere at different pressures. Cooling the sample causes the nitrogen molecules to be condensed on the surface of the particles. The quantity of condensed nitrogen is determined by means of the drop in pressure in the system and the surface of the sample is calculated by means of the surface nitrogen requirement and the weight of the sample.
Measuring device: Tri Star Multi Point BET, Messrs. Micromeritics
Heating station: VacPrep 061, Messrs. Micromeritics
Heating: approx. 12 h /40° C.

[2] = Bioavailability after administration by inhalation as powder inhalant; conditions: in vivo, inhaled or intranasal; administered by inhalation as powder inhalant; based on the fine content of the formulation (FPD, fine particle dose, USP 24 Suppl. 2000)
[3] = Determining the particle size by laser diffraction (Frauenhofer diffraction); type: physicochemical
Text: a) Determining the Particle Size by Laser Diffraction (Frauenhofer Diffraction):
Measuring method: In order to determine the particle size the powder is fed into a laser diffraction spectrometer using a dispersing unit. The median value X50 refers to the particle size below which 50% of the quantity of particles fall. The Q(5.8) value describes the percentage of particles which are less than 5.8 μm in size.
Measuring device: Laser diffraction spectrometer (HELOS), Messrs. Sympatec
Dispersing unit: RODOS/dispersing pressure: 3 bar
Focal length: 100 mm [measuring range: 0.9 . . . 175 μm]
Evaluation method: HRLD (V 4)

[4] = conventional formulations; cited from earlier work
[5] = Stability of the amorphous state; type: physicochemical; conditions: normal conditions (T<50° C., relative humidity<75%); microparticles

Specific surface area Sm [1]: 21.5 m^2/g | bioavailability [2]: ~60% | Particle size X50 ([3]; spray-dried microparticles from 0.5 g (A) in 100 mL ethanol, median particle size, RODOS dispersing pressure 3 bar): 1.2 μm | Particle size Q(5.8) ([3]; spray-dried microparticles from ethanol solution, percentage of particles less than 5.8 μm in size): 99.5% | stability in the amorphous state [5]: stable in the amorphous state
SMILES: NCCCC[C@H](NC(=O)[C@@H](Cc1cc(Br)c(O)c(Br)c1)NC(=O)N1CCC(N2Cc3ccccc3NC2=O)CC1)C(=O)N1CCN(c2ccncc2)CC1 [A, 1-[N^2-[3,5-dibromo-N-[[4-(3,4-dihydro-2(1H)-oxoquinazolin-3-yl)-1-piperidinyl]carbonyl]-D-tyrosyl]-L-lysyl]-4-(4-pyridinyl)-piperazine]
oral bioavailability [4]: very limited oral bioavailability

From patent publication US20050043247A1, “Spray-dried amorphous BIBN 4096, process for preparing and the use thereof as inhalative” (Boehringer Ingelheim International GmbH, priority 2003, published 2005)
